The text below walks through data of ChEMBL document CHEMBL1135425, “Antitumor agents. 213. Modeling of epipodophyllotoxin derivatives using variable selection k nearest neighbor QSAR method” (J Med Chem, 2002).

“And” between values parts separate entries of the source, which are not always exact repeats. Equal values may be shown once.

The test deals with DNA topoisomerase II (Homo sapiens) (UniProt P11388+Q02880). As to the kind of experiment: Percentage of intracellular covalent DNA-topoisomerase II complexes formed. Type of test: cell-based.
Compound `COc1cc([C@@H]2c3cc4c(cc3[C@@H](Nc3ccc(C#N)cc3)[C@H]3COC(=O)[C@H]23)OCO4)cc(OC)c1O` came in with a Complex formation of 211%.
The same measure for `COC(=O)c1ccc(NC2c3cc4c(cc3[C@@H](c3cc(O)c(O)c(OC)c3)[C@H]3C(=O)OC[C@H]23)OCO4)cc1` (stereo not given in full): 175%; for `COc1cc([C@@H]2c3cc4c(cc3[C@@H](NCc3ccccc3N)[C@H]3COC(=O)[C@H]23)OCO4)cc(OC)c1O`: 184%.
With `COc1cc([C@@H]2c3cc(O)c(O)cc3[C@@H](Nc3ccc([N+](=O)[O-])cc3)[C@H]3COC(=O)[C@H]23)cc(OC)c1OC` the figure was 23%; with `COc1cc([C@@H]2c3cc4c(cc3[C@@H](Nc3cc([N+](=O)[O-])cc([N+](=O)[O-])c3)[C@H]3COC(=O)[C@H]23)OCO4)cc(OC)c1O`, 20%.
`CCOC(=O)c1ccc(NC2c3cc(O)c(O)cc3[C@@H](c3cc(OC)c(OC)c(OC)c3)[C@H]3C(=O)OC[C@H]23)cc1` (stereo not given in full) had a Complex formation of 22%.
With `COc1cc([C@@H]2c3cc4c(cc3[C@@H](Nc3cc(C(F)(F)F)cc(C(F)(F)F)c3)[C@H]3COC(=O)[C@H]23)OCO4)cc(OC)c1O` the figure was 21%.
`COc1ccc([N+](=O)[O-])cc1N[C@@H]1c2cc3c(cc2[C@@H](c2cc(OC)c(O)c(OC)c2)[C@H]2C(=O)OC[C@@H]21)OCO3` returned a Complex formation of 12%.
As for `COc1cc([C@@H]2c3cc4c(cc3[C@@H](Nc3cccc(N)c3)[C@H]3COC(=O)[C@H]23)OCO4)cc(OC)c1O`, the Complex formation was 140%.
As to `COc1cc([C@@H]2c3cc4c(cc3[C@@H](NCCCO)[C@H]3COC(=O)[C@H]23)OCO4)cc(OC)c1O`, the Complex formation turned out to be 89.2%.
The same measure for `COc1cc2c(cc1OC)[C@@H](c1cc(OC)c(O)c(OC)c1)[C@H]1C(=O)OC[C@@H]1C2Nc1ccc(F)cc1` (stereo not given in full): 108%; for `COc1cc([C@@H]2c3cc4c(cc3[C@@H](NC(=O)NCCCl)[C@H]3COC(=O)[C@H]23)OCO4)cc(OC)c1O`: 143%; for `COc1cc([C@@H]2c3cc4c(cc3[C@@H](Nc3ccc(NC(=O)C56CCC(C)(C(=O)O5)C6(C)C)cc3)[C@H]3COC(=O)[C@H]23)OCO4)cc(OC)c1O` (stereo not given in full): 88%.
With `COC(=O)c1cc(N[C@@H]2c3cc4c(cc3[C@@H](c3cc(OC)c(O)c(OC)c3)[C@H]3C(=O)OC[C@@H]32)OCO4)ccc1O` the figure was 83%; with `COc1cc([C@@H]2c3cc4c(cc3[C@@H](Nc3ccc(NC(=O)c5cc([N+](=O)[O-])cn5C)cc3)[C@H]3COC(=O)[C@H]23)OCO4)cc(OC)c1O`, 100%.
With `COc1cc([C@@H]2c3cc4c(cc3[C@@H](OC(=O)c3ccccc3)[C@H]3COC(=O)[C@H]23)OCO4)cc(OC)c1O` the figure was 94%; with `COc1cc([C@@H]2c3cc4c(cc3[C@@H](NC(=O)c3cccc([N+](=O)[O-])c3)[C@H]3COC(=O)[C@H]23)OCO4)cc(OC)c1O`, 86%; with `COc1ccc(N[C@@H]2c3cc4c(cc3[C@@H](c3cc(OC)c(O)c(OC)c3)[C@H]3C(=O)OC[C@@H]32)OCO4)cc1OC`, 180%.
`COc1cc([C@@H]2c3cc4c(cc3[C@@H](Nc3cnc5ccccc5c3)[C@H]3COC(=O)[C@H]23)OCO4)cc(OC)c1O` gave a Complex formation of 123%.
`CCC(C)N[C@@H]1c2cc3c(cc2[C@@H](c2cc(OC)c(O)c(OC)c2)[C@H]2C(=O)OC[C@@H]21)OCO3` (stereo not given in full) yielded a Complex formation of 73%.
As to `COc1cc([C@@H]2c3cc(O)c(O)cc3[C@@H](Nc3cccc(O)c3)[C@H]3COC(=O)[C@H]23)cc(OC)c1O`, the Complex formation was found to be 18%.
With `COc1cc([C@@H]2c3cc4c(cc3[C@@H](NCc3ccccc3)[C@H]3COC(=O)[C@H]23)OCO4)cc(OC)c1O` the figure was 181%.
The same measure for `COc1cc([C@@H]2c3cc4c(cc3[C@@H](NCc3cccc(N)c3)[C@H]3COC(=O)[C@H]23)OCO4)cc(OC)c1O`: 191%; for `COc1cc([C@@H]2c3cc4c(cc3[C@@H](NC(=O)c3cccc(C#N)c3)[C@H]3COC(=O)[C@H]23)OCO4)cc(OC)c1O`: 149%.
The same measure for `COc1ccc(NC2c3cc4c(cc3[C@@H](c3cc(O)c(O)c(OC)c3)[C@H]3C(=O)OC[C@H]23)OCO4)cc1OC` (stereo not given in full): 69%; for `COc1cc([C@@H]2c3cc4c(cc3[C@@H](NCc3ccccc3[N+](=O)[O-])[C@H]3COC(=O)[C@H]23)OCO4)cc(OC)c1O`: 144%.
In turn, `COc1cc([C@@H]2c3cc4c(cc3[C@@H](NC(C)C)[C@H]3COC(=O)[C@H]23)OCO4)cc(OC)c1O` registered a Complex formation of 109%.
With `COc1cc([C@@H]2c3cc4c(cc3[C@@H](NC(=O)c3ccc(C(C)=O)cc3)[C@H]3COC(=O)[C@H]23)OCO4)cc(OC)c1O` the figure was 124%.
For the compound `COc1cc([C@@H]2c3cc4c(cc3[C@@H](Sc3ccc(O)cc3)[C@H]3COC(=O)[C@H]23)OCO4)cc(OC)c1O`, the Complex formation amounted to 10%.
`COc1cc([C@@H]2c3cc4c(cc3[C@@H](NC(=O)c3cccc(N)c3)[C@H]3COC(=O)[C@H]23)OCO4)cc(OC)c1O`: the Complex formation was found to be 149%.
On to `COc1cc([N+](=O)[O-])c(OC)cc1N[C@@H]1c2cc3c(cc2[C@@H](c2cc(OC)c(O)c(OC)c2)[C@H]2C(=O)OC[C@@H]21)OCO3`, for which the Complex formation was determined as 4.4%.
In the case of `COc1cc([C@@H]2c3cc4c(cc3[C@@H](Nc3ccc(N)cc3)[C@H]3COC(=O)[C@H]23)OCO4)cc(OC)c1O`, the Complex formation is 330%.
The same measure for `CNC(=O)N[C@@H]1c2cc3c(cc2[C@@H](c2cc(OC)c(O)c(OC)c2)[C@H]2C(=O)OC[C@@H]21)OCO3`: 81%; for `COc1cc([C@@H]2c3cc4c(cc3[C@@H](NC(=O)Nc3ccc(Cl)cc3)[C@H]3COC(=O)[C@H]23)OCO4)cc(OC)c1O`: 125%; for `COc1cc([C@@H]2c3cc4c(cc3[C@@H](NCCN(C)C)[C@H]3COC(=O)[C@H]23)OCO4)cc(OC)c1O`: 183% and 203%.
With `COc1cc([C@@H]2c3cc4c(cc3C(Nc3ccc(F)cc3)[C@H]3COC(=O)[C@H]23)OCO4)cc(O)c1O` (stereo not given in full) the figure was 117%.
The same measure for `COc1cc([C@@H]2c3cc4c(cc3[C@@H](Nc3cc(OC)c(OC)c(OC)c3)[C@H]3COC(=O)[C@H]23)OCO4)cc(OC)c1O`: 47%.
Compound `COc1cc([C@@H]2c3cc4c(cc3[C@@H](Nc3cccc(Br)c3)[C@H]3COC(=O)[C@H]23)OCO4)cc(OC)c1O` came in with a Complex formation of 62%.
The same measure for `COC(=O)c1ccc(N[C@@H]2c3cc4c(cc3[C@@H](c3cc(OC)c(O)c(OC)c3)[C@H]3C(=O)OC[C@@H]32)OCO4)cc1O`: 129%; for `CCOC(=O)CC[C@H](NC(=O)c1ccc(N[C@@H]2c3cc4c(cc3[C@@H](c3cc(OC)c(O)c(OC)c3)[C@H]3C(=O)OC[C@@H]32)OCO4)cc1)C(=O)OCC`: 83%; for `COc1cc([C@@H]2c3cc4c(cc3[C@@H](NC(=O)c3ccc(F)cc3)[C@H]3COC(=O)[C@H]23)OCO4)cc(OC)c1O`: 117%.
With `COc1cc([C@@H]2c3cc4c(cc3[C@@H](Nc3ccccc3)[C@H]3COC(=O)[C@H]23)OCO4)cc(OC)c1O` the figure was 243%; with `COc1cc2c(cc1OC)[C@@H](c1cc(OC)c(O)c(OC)c1)[C@H]1C(=O)OC[C@@H]1C2Nc1ccc(C#N)cc1` (stereo not given in full), 125%.
The same measure for `COc1cc([C@@H]2c3cc(O)c(O)cc3C(Nc3ccc(C#N)cc3)[C@H]3COC(=O)[C@H]23)cc(OC)c1O` (stereo not given in full): 62%; for `COc1cc([C@@H]2c3cc4c(cc3[C@@H](Nc3ccc(NC(=O)c5cc(NC(=O)c6cc([N+](=O)[O-])cn6C)cn5C)cc3)[C@H]3COC(=O)[C@H]23)OCO4)cc(OC)c1O`: 26%.
The compound `COc1cc([C@@H]2c3cc4c(cc3C(Nc3ccc(O)cc3)[C@H]3COC(=O)[C@H]23)OCO4)cc(O)c1O` (stereo not given in full) yielded a Complex formation of 83%.
With `COCCN[C@@H]1c2cc3c(cc2[C@@H](c2cc(OC)c(O)c(OC)c2)[C@H]2C(=O)OC[C@@H]21)OCO3` the figure was 111%; with `COc1cc([C@@H]2c3cc4c(cc3C(Nc3ccc(C#N)cc3)[C@H]3COC(=O)[C@H]23)OCO4)cc(O)c1O` (stereo not given in full), 146%; with `COc1cccc(N[C@@H]2c3cc4c(cc3[C@@H](c3cc(OC)c(O)c(OC)c3)[C@H]3C(=O)OC[C@@H]32)OCO4)c1`, 104%.
On to `COc1cc([C@@H]2c3cc4c(cc3[C@@H](N[C@H](C)CO)[C@H]3COC(=O)[C@H]23)OCO4)cc(OC)c1O`, for which the Complex formation worked out at 162%.
Take `CCOC(=O)c1ccc(NC2c3cc(OC)c(OC)cc3[C@@H](c3cc(OC)c(O)c(OC)c3)[C@H]3C(=O)OC[C@H]23)cc1` (stereo not given in full): the Complex formation worked out at 127%.
With `COc1cc([C@@H]2c3cc4c(cc3[C@@H](NC(=O)c3ccc([N+](=O)[O-])cc3)[C@H]3COC(=O)[C@H]23)OCO4)cc(OC)c1O` the figure was 160%; with `COC1=CC([C@@H]2c3cc4c(cc3C(NC(=O)N(C)N=O)[C@H]3COC(=O)[C@H]23)OCO4)=CC(=O)C1=O` (stereo not given in full), 41%.
As for `COc1cc([C@@H]2c3cc4c(cc3[C@@H](NCCO)[C@H]3COC(=O)[C@H]23)OCO4)cc(OC)c1O`, the Complex formation stood at 121%.
With `COc1cc2c(cc1OC)[C@@H](c1cc(OC)c(OC)c(OC)c1)[C@H]1C(=O)OC[C@@H]1C2Nc1ccc(C#N)cc1` (stereo not given in full) the figure was 12%; with `COc1cc([C@@H]2c3cc4c(cc3[C@@H](NC(=O)c3cccc(F)c3)[C@H]3COC(=O)[C@H]23)OCO4)cc(OC)c1O`, 116%.
For `COc1cc([C@@H]2c3cc4c(cc3[C@@H](NC(=O)c3ccc(OC(C)=O)cc3)[C@H]3COC(=O)[C@H]23)OCO4)cc(OC)c1O`, the Complex formation worked out at 137%.
Regarding `COc1cc2c(cc1OC)[C@@H](Nc1ccc([N+](=O)[O-])cc1)[C@H]1COC(=O)[C@@H]1[C@@H]2c1cc(OC)c(OC)c(OC)c1`, the Complex formation was found to be 8%.
Compound `COc1cc([C@@H]2c3cc(O)c(O)cc3C(Nc3ccc(F)cc3)[C@H]3COC(=O)[C@H]23)cc(OC)c1O` (stereo not given in full) had a Complex formation of 52%.
With `COc1cc([C@@H]2c3cc4c(cc3[C@@H](NC(=O)Nc3ccccc3)[C@H]3COC(=O)[C@H]23)OCO4)cc(OC)c1O` the figure was 148%.
